In patent US12209086B2, “FGFR3 inhibitor compounds” (ELI LILLY AND COMPANY, priority 2021, dated 2025) one finds IC50 data, which are given here for 15 molecules.

One may read the IC50 as the concentration that inhibits the measured activity by half. A low value points to inhibition by little substance.

Where only a bound is given, the exact number is not on record here.

In this assay the target is T1, FGFR3 protein (Homo sapiens, UniProt P22607).
T1 construct: purchased Reaction Biology 1068
T1 sequence (P22607 23-806): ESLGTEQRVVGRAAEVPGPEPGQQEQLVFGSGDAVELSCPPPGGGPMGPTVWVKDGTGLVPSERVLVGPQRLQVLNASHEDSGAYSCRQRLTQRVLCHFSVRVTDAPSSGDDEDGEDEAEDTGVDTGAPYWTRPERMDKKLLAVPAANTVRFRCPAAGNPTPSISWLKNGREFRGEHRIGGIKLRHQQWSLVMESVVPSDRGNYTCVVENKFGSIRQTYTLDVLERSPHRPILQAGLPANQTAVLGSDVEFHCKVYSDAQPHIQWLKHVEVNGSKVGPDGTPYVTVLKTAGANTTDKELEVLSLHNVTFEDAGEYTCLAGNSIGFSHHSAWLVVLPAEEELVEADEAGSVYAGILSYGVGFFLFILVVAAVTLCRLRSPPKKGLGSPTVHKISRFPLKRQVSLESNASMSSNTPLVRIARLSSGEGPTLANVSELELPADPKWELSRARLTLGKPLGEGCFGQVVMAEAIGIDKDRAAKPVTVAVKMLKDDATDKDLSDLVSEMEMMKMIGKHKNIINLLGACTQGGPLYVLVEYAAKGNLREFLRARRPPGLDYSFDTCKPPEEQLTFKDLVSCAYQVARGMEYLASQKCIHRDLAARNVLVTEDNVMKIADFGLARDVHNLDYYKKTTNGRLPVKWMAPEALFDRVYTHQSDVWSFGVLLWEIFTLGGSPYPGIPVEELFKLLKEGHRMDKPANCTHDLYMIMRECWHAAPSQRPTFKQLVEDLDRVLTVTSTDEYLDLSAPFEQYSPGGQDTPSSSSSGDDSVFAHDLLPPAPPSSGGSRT
Nature of the assay: FGFR3 enzyme assay (KinEASE-TK HTRF kinase assay). It counts as biochemical. As to conditions: 0.25 nM enzyme, ATP at Km, 15 min pre-incubation on ice, 30 min at 30° C. The method, then: FGFR3 and FGFR1 Enzyme Assay
Enzyme activity was monitored using the KinEASE™-TK Assay Kit (Cisflio, Cat. No. 62TK0PEC) according to the manufacturer's instructions. All assays were performed at the respective KmATP for each kinase in KinEASE™ Kinase Buffer.
Titration of compounds were performed in a half-log manner in 100% dimethyl sulfoxide (DMSO) starting at 1 uM. Prior to the initiation of the reaction by adenosine triphosphate (ATP), FGFR1 protein and compounds were pre-incubated for 15 minutes at room temperature, and FGFR3 protein and compounds were pre-incubated on ice for 15 minutes. Reactions proceeded for 30 min at 30° C. Plates were quenched by the addition of the Anti-TK cryptate antibody/Streptavidin-XL665 mixture.
Ratios were converted to a percent of control (POC) using a ratiometric emission factor. One hundred POC was determined using no test compound, and 0 POC was determined in the presence of 1 uM of an appropriate control inhibitor.
`Cc1c(-c2cc(OCC(O)c3ccc(F)cn3)c3c(Cl)cnn3c2)nnn1C1CCN(C#N)CC1` (single isomer, unassigned) [Example 154, 4-[4-[3-Chloro-4-[2-(5-fluoro-2-pyridyl)-2-hydroxy-ethoxy]pyrazolo[1,5-a]pyridin-6-yl]-5-methyl-triazol-1-yl]piperidine-1-carbonitrile]: the IC50 is < 50 nM.

For `Cc1c(-c2cc(O[C@H](C)c3ccccn3)n3c(C#N)cnc3c2)nnn1C1CCCN(C#N)CC1` (stereo partly drawn) [Example 257, 7-[1-(1-Cyanoazepan-4-yl)-5-methyl-triazol-4-yl]-5-[(1R)-1-(2-pyridyl)ethoxy] imidazo[1,2-a]pyridine-3-carbonitrile], the half-maximal inhibitory concentration (IC50) was < 50 nM. For `Cc1c(-c2cc(OC(C)c3cncc(C(F)(F)F)n3)n3c(C#N)cnc3c2)nnn1C1CCN(C#N)CC1` (single isomer, unassigned) [Example 99, 7-[1-(1-Cyano-4-piperidyl)-5-methyl-triazol-4-yl]-5-[1-[6-(trifluoromethyl)pyrazin-2-yl]ethoxy]imidazo [1,2-a]pyridine-3-carbonitrile], the half-maximal inhibitory concentration (IC50) was < 50 nM. `Cc1c(-c2cc(OC(C)c3ccccc3S(C)(=O)=O)c3c(C#N)cnn3c2)cnn1C1CCN(C#N)CC1` (single isomer, unassigned; isomer 2) [Example 77, 6-[1-(1-Cyano-4-piperidyl)-5-methyl-pyrazol-4-yl]-4-[1-(2-methylsulfonylphenyl)ethoxy]pyrazolo[1,5-a]pyridine-3-carbonitrile, Isomer 2]: the half-maximal inhibitory concentration (IC50) was < 100 nM. Take `Cc1c(-c2cc(OC(C)c3cncc(C(F)(F)F)c3)n3c(C#N)cnc3c2)nnn1C1CCN(C#N)CC1` (single isomer, unassigned; isomer 1) [Example 41, 7-[1-(1-Cyano-4-piperidyl)-5-methyl-triazol-4-yl]-5-[1-[5-(trifluoromethyl)-3-pyridyl]ethoxy]imidazo[1,2-a]pyridine-3-carbonitrile, Isomer 1]: the half-maximal inhibitory concentration (IC50) was < 50 nM. For the molecule `Cc1c(-c2cc(OC(c3ccccn3)C(C)(C)C)n3c(C#N)cnc3c2)nnn1C1CCN(C#N)CC1` (single isomer, unassigned) [Example 264, 7-[1-(1-Cyano-4-piperidyl)-5-methyl-triazol-4-yl]-5-[2,2-dimethyl-1-(2-pyridyl)propoxy] imidazo[1,2-a]pyridine-3-carbonitrile], the IC50 was < 100 nM. Consider `Cc1c(-c2cc(OCC(C)(O)c3ccc(F)cn3)c3c(F)cnn3c2)nnn1C1CCN(C#N)CC1` (single isomer, unassigned) [Example 157, 4-[4-[3-Fluoro-4-[2-(5-fluoro-2-pyridyl)-2-hydroxy-propoxy]pyrazolo[1,5-a]pyridin-6-yl]-5-methyl-triazol-1-yl]piperidine-1-carbonitrile], for which the half-inhibitory concentration (IC50) is < 50 nM.

As to `COc1cc(-c2cnn(C3CCN(C4CN(C#N)C4(C)C)CC3)c2C)cn2ncc(C#N)c12` (single isomer, unassigned) [Example 173, 3-[4-(4-[3-Cyano-4-methoxypyrazolo[1,5-a]pyridin-6-yl]-5-methylpyrazol-1-yl)piperidin-1-yl]-2,2-dimethylazetidine-1-carbonitrile], the IC50 was < 50 nM. `Cc1c(-c2cc(O[C@H](C)C3CCOCC3)c3c(C#N)cnn3c2)cnn1C1CCN(C#N)CC1` [Example 245, 4-(4-[3-Cyano-4-[(1R)-1-(oxan-4-yl)ethoxy]pyrazolo [1,5-a]pyridin-6-yl]-5-methylpyrazol-1-yl)piperidine-1-carbonitrile]: the half-inhibitory concentration (IC50) is < 50 nM. With `Cc1c(-c2cc(OC(c3ccc(F)cn3)C(F)(F)F)n3c(C#N)cnc3c2)nnn1C1CCN(C#N)CC1` (single isomer, unassigned; isomer 1) [Example 48, 7-[1-(1-Cyano-4-piperidyl)-5-methyl-triazol-4-yl]-5-[2,2,2-trifluoro-1-(5-fluoro-2-pyridyl)ethoxy]imidazo[1,2-a]pyridine-3-carbonitrile, Isomer 1], the IC50 was < 50 nM. As for `COc1cc(-c2cnn(C3CN(C4CCN(C#N)CC4(F)F)C3)c2C)cn2ncc(C#N)c12` (single isomer, unassigned) [Example 179, 4-[3-(4-[3-Cyano-4-methoxypyrazolo[1,5-a]pyridin-6-yl]-5-methylpyrazol-1-yl)azetidin-1-yl]-3,3-difluoropiperidine-1-carbonitrile], the IC50 was < 50 nM. Then `Cc1c(-c2cc(OC(C)c3cncc4cc(F)ccc34)c3c(C#N)cnn3c2)nnn1C1CCN(C#N)CC1` (stereo not drawn) [Example 21, 6-[1-(1-Cyano-4-piperidyl)-5-methyl-triazol-4-yl]-4-[1-(7-fluoro-4-isoquinolyl)ethoxy] pyrazolo[1,5-a] pyridine-3-carbonitrile], with < 50 nM. Then `Cc1c(-c2cc(OC(CO)c3ccc(F)cn3)c3c(Cl)cnn3c2)nnn1C1CC(N2CCN(C#N)CC2)C1` (single isomer, unassigned) [Example 152, Cis-4-[3-[4-[3-Chloro-4-[1-(5-fluoro-2-pyridyl)-2-hydroxy-ethoxy]pyrazolo[1,5-a]pyridin-6-yl]-5-methyl-triazol-1-yl]cyclobutyl] piperazine-1-carbonitrile], with < 50 nM; and `Cc1c(-c2cc(O[C@H](C)c3nncn3CC(F)(F)F)n3c(C#N)cnc3c2)nnn1C1CCN(C#N)CC1` [Example 274, 7-[1-(1-Cyano-4-piperidyl)-5-methyl-triazol-4-yl]-5-[(1R)-1-[4-(2,2,2-trifluoroethyl)-1,2,4-triazol-3-yl]ethoxy]imidazo [1,2-a]pyridine-3-carbonitrile], with < 100 nM; and `COc1cc(-c2cnn(C3CN(C4CC5CC(C4)N(C#N)C5)C3)c2C)cn2ncc(C#N)c12` (stereo not drawn) [Example 225, 6-(1-(1-(6-cyano-6-azabicyclo[3.2.1]octan-3-yl)azetidin-3-yl)-5-methyl-1H-pyrazol-4-yl)-4-methoxypyrazolo[1,5-a]pyridine-3-carbonitrile], with < 100 nM.
